# Assay results: publication PMC11876601 (Molecular Systems Biology, 2025)
# Read-outs that look alike come from different tables or passages of the source.
# Key:
# TANK = conditions: 5 cell line mix lysate, Kinobeads ε, ref Reinecke et al. (2023), cited from earlier work
# IKBKE [1] = conditions: 5 cell line mix lysate, Kinobeads ε, ref Reinecke et al. (2023), cited from earlier work
# ABL1 = conditions: ABL1, 5 cell line mix lysate, Kinobeads ε, ref Reinecke et al. (2023), cited from earlier work
# CAMK2B = molecular target: CAMK2B; set-up: method as in Reinecke et al. (2023); conditions: 5 cell line mix lysate, Kinobeads ε, ref Reinecke et al. (2023), cited from earlier work
# FRK = molecular target: FRK; set-up: method as in Reinecke et al. (2023); conditions: 5 cell line mix lysate, Kinobeads ε, ref Reinecke et al. (2023), cited from earlier work
# RPS6KA3 = tested on: RPS6KA3; set-up: method as in Reinecke et al. (2023); conditions: RPS6KA3, 5 cell line mix lysate, Kinobeads ε, ref Reinecke et al. (2023), cited from earlier work
# PRKAA2 = tested on: PRKAA2; set-up: method as in Reinecke et al. (2023); conditions: PRKAA2, 5 cell line mix lysate, Kinobeads ε, ref Reinecke et al. (2023), cited from earlier work
# MAP3K12 = tested on: MAP3K12; set-up: method as in Reinecke et al. (2023); conditions: MAP3K12, 5 cell line mix lysate, Kinobeads ε, ref Reinecke et al. (2023), cited from earlier work
# AXL = molecular target: AXL; set-up: method as in Reinecke et al. (2023); conditions: 5 cell line mix lysate, Kinobeads ε, ref Reinecke et al. (2023), cited from earlier work
# MAPK7 = tested on: MAPK7; set-up: method as in Reinecke et al. (2023); conditions: MAPK7, 5 cell line mix lysate, Kinobeads ε, ref Reinecke et al. (2023), cited from earlier work
# MAPK9 = tested on: MAPK9; set-up: method as in Reinecke et al. (2023); conditions: MAPK9, 5 cell line mix lysate, Kinobeads ε, ref Reinecke et al. (2023), cited from earlier work
# BxPC-3 cells = assay: Drug combination viability screen (ATPlite, 72 h); format: cell-based, human; set-up: AUC: unit not given beside the values; conditions: for EC50: Homo sapiens, BXPC-3;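 on AUC: area under vehicle-normalized viability curve scaled 0 to 100 percent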;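 on Curve bottom: fraction of vehicle control viability from four-parameter log-logistic fit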
# Description: Cell viability was assessed by measuring ATP levels to indicate metabolic activity.
# Afterward, small amounts were transferred to 384-well intermediate plates (Greiner Bio-One GmbH, Germany). […] For drug combination screening, 1000 to 5000 cells were seeded into 384-well plates (CulturPlate™, Perkin Elmer, MA, USA) using a Multidrop™ Combi Reagent Dispenser (Thermo Scientific, MA, USA) in 50 µl medium per well 24 h prior to drug treatment (seeding densities see Appendix Table S1). […] The final DMSO concentration in each well was 0.2%. […] Eight wells per plate without library drug served as negative controls, and sixteen wells per plate containing 5 µM Staurosporine served as positive controls. Control plates not containing any drug were used to correct for incubation effects, and data quality was assessed by calculation of Z-prime of positive and negative controls according to1 Z-prime=1−3SDpos+3SDneg/[…] where SD is the standard deviation. […] Dose–response curves from the experimental and hypothetical data were compared, and shifts in AUC were used to describe combination effects (AUC∆ = AUChypothetical − AUCexperimental). […] Only combinations with R^2 > 0.8 in both conditions were considered in the synergy analysis.
# MAP3K6 = tested on: MAP3K6; set-up: method as in Klaeger et al. (2017); conditions: lysate 4 cell line mix (Colo205, K-562, MV-4-11, and SK-N-BE(2)), Kinobeads y, ref Klaeger et al. (2017); cited from earlier work
# INCENP = tested on: INCENP; set-up: method as in Klaeger et al. (2017); conditions: lysate 4 cell line mix (Colo205, K-562, MV-4-11, and SK-N-BE(2)), Kinobeads y, ref Klaeger et al. (2017); cited from earlier work
# IKBKE [2] = tested on: IKBKE; set-up: method as in Klaeger et al. (2017); conditions: lysate 4 cell line mix (Colo205, K-562, MV-4-11, and SK-N-BE(2)), Kinobeads y, ref Klaeger et al. (2017); cited from earlier work
# SLK = tested on: SLK; set-up: method as in Klaeger et al. (2017); conditions: lysate 4 cell line mix (Colo205, K-562, MV-4-11, and SK-N-BE(2)), Kinobeads y, ref Klaeger et al. (2017); cited from earlier work
# CDK5 = tested on: CDK5; set-up: method as in Klaeger et al. (2017); conditions: lysate 4 cell line mix (Colo205, K-562, MV-4-11, and SK-N-BE(2)), Kinobeads y, ref Klaeger et al. (2017); cited from earlier work
# PDGFRB = tested on: PDGFRB; set-up: method as in Klaeger et al. (2017); conditions: lysate 4 cell line mix (Colo205, K-562, MV-4-11, and SK-N-BE(2)), Kinobeads y, ref Klaeger et al. (2017); cited from earlier work
# AP2A1 = tested on: AP2A1; set-up: method as in Klaeger et al. (2017); conditions: AP2A1, 4 cell line mix lysate, Kinobeads y, ref Klaeger et al. (2017); cited from earlier work
# CDK2 = tested on: CDK2; set-up: method as in Klaeger et al. (2017); conditions: CDK2, 4 cell line mix lysate, Kinobeads y, ref Klaeger et al. (2017); cited from earlier work
compound,measurement,setting,value
COc1cc(N2CCC(N3CCN(C)CC3)CC2)ccc1Nc1ncc(Cl)c(Nc2ccccc2P(C)(C)=O)n1 [Brigatinib],Kd,TANK; read-out: KDapp,684 nM
same,EC50,TANK,1070 nM
same,pKDapp,TANK,6.17
same,Kd,IKBKE [1]; read-out: KDapp,2520 nM
same,EC50,IKBKE [1],4060 nM
same,pKDapp,IKBKE [1],5.60
same,EC50,ABL1,3460 nM
same,pKDapp,ABL1,5.72
same,Kd,ABL1; read-out: KDapp,1890 nM
same,Kd,CAMK2B; read-out: KDapp,48.4 nM
same,EC50,CAMK2B,323 nM
same,pKDapp,CAMK2B,7.32
same,Kd,FRK; read-out: KDapp,53 nM
same,EC50,FRK,156 nM
same,pKDapp,FRK,7.28
same,EC50,RPS6KA3,162 nM
same,pKDapp,RPS6KA3,6.93
same,Kd,RPS6KA3; read-out: KDapp,118 nM
same,EC50,PRKAA2,1160 nM
same,pKDapp,PRKAA2,6.28
same,Kd,PRKAA2; read-out: KDapp,527 nM
same,EC50,MAP3K12,1040 nM
same,pKDapp,MAP3K12,6.25
same,Kd,MAP3K12; read-out: KDapp,563 nM
same,Kd,AXL; read-out: KDapp,635 nM
same,EC50,AXL,635 nM
same,pKDapp,AXL,6.20
same,EC50,MAPK7,1060 nM
same,pKDapp,MAPK7,6.08
same,Kd,MAPK7; read-out: KDapp,828 nM
same,EC50,MAPK9,2110 nM
same,pKDapp,MAPK9,5.83
same,Kd,MAPK9; read-out: KDapp,1480 nM
"Nc1ccn([C@@H]2O[C@H](CO)[C@@H](O)C2(F)F)c(=O)n1 [GEM, Gemcitabine]",Reponse,"BxPC-3 cells; BxPC-3, R1, 41.15 nM",1061560
same,Reponse,"BxPC-3 cells; BxPC-3, R1, […] nM",1199800
same,Reponse,"BxPC-3 cells; BxPC-3, R1, 370.37 nM",1177280
same,Reponse,"BxPC-3 cells; BxPC-3, R1, 1111.11 nM",1044400
same,Reponse,"BxPC-3 cells; BxPC-3, R1, 3333.33 nM",1111640
same,Reponse,"BxPC-3 cells; BxPC-3, R1, 10000 nM",1115240
same,Reponse,"BxPC-3 cells; BxPC-3, R2, 13.72 nM",1392120
same,Reponse,"BxPC-3 cells; BxPC-3, R2, 41.15 nM",1083440
same,Reponse,"BxPC-3 cells; BxPC-3, R2, […] nM",1301640
same,Reponse,"BxPC-3 cells; BxPC-3, R2, 370.37 nM",1316120
same,Reponse,"BxPC-3 cells; BxPC-3, R2, 1111.11 nM",1172200
same,Reponse,"BxPC-3 cells; BxPC-3, R2, 3333.33 nM",1101720
same,Reponse,"BxPC-3 cells; BxPC-3, R2, 10000 nM",982880
same,Curve bottom,"BxPC-3 cells; BxPC-3, GEM curve fit",0.26
same,Curve effect size,"BxPC-3 cells; BxPC-3, GEM curve fit",0.75
same,Curve slope,"BxPC-3 cells; BxPC-3, GEM curve fit",1.82
same,Curve top,"BxPC-3 cells; BxPC-3, GEM curve fit",1.03
same,AUC,"BxPC-3 cells; BxPC-3, GEM curve fit, in %",45.89
same,EC50,BxPC-3 cells; read-out: EC50,3.59 nM
same,EC50,BxPC-3 cells; read-out: pEC50 (converted),3.55 nM
C[C@]12O[C@H](C[C@]1(O)CO)n1c3ccccc3c3c4c(c5c6ccccc6n2c5c31)CNC4=O [Lestaurtinib],EC50,MAP3K6,458 nM
same,EC50,INCENP,520 nM
same,EC50,IKBKE [2],1030 nM
same,EC50,AP2A1,83.7 nM
